Where two headings read alike, the source gives them in different places.
Experiments:
[1] = system: SOX17 (endoderm marker) in RUES2-GLR cells; experiment: DevTox GLR-Endo assay: decrease in percent SOX17-positive cells (AEID 3094, Sox17_dn); settings: for Emax / IC50 / AC50: Homo sapiens; for effect on SOX17-positive cells (in words): 48 h exposure during directed endoderm differentiation; for IC50: 48 h; for AC50: read-out: ga (winning model), tcpl plot AEID3094, gain parameter of winning curve fit (log concentration, µM axis), hit calls only (converted); for % Max Inhibition: maximum inhibition of SOX17-positive cells, reference chemical testing
Procedure: (§1) The total test chemical incubation period was 48 h.
(§2) Assay plate controls included non-differentiated pluripotent cells maintained in complete Essential 8 Flex medium (baseline control), endoderm differentiated cells (differentiation control), endoderm differentiated cells treated with DMSO (0.2%) (solvent control), and TGF-ß receptor inhibitor SB431542 (1 µM)-treated cells (developmental toxicant-positive control) (Figure S3). All experiments were completed with a minimum of four biological replicates (n = 4).
(§3) (Supplementary Materials).

[2] = system: RUES2-GLR cells; experiment: DevTox GLR-Endo assay: decrease in total cell count, cytotoxicity (AEID 3098, CellCount_dn); settings: for Emax: Homo sapiens, read-out: Cell Count % Max Inhibition; for effect on cell counts (in words): reference chemical testing, increasing concentrations
Procedure: as §1, §2, §3

[3] = system: SOX17 (endoderm marker) in RUES2-GLR cells; experiment: DevTox GLR-Endo assay: increase in percent SOX17-positive cells (AEID 3093, Sox17_up); format: cell-based, human; settings: for Emax: Homo sapiens; for HIT−CALL: tcpl plot AEID3093, COFF 20.3
Procedure: as §1, §3

[4] = system: BRA (mesoderm marker) in RUES2-GLR cells; experiment: DevTox GLR-Endo assay: increase in percent BRA-positive cells (AEID 3096, Bra_up); format: cell-based, human; settings: for HIT−CALL: tcpl plot AEID3096, COFF 0.774; for MAX_MEAN: tcpl plot AEID3096, maximum mean response; for MAX_MED: tcpl plot AEID3096, maximum median response
Procedure: as §1, §3

[5] = cited from earlier work; for Development Toxicant Classification: Table S2; for Classification: developmental toxicant classification (Teratogen / Non-Teratogen) of reference and training chemicals, ref DOI per chemical: 10.1093/toxsci/kft239, 10.1093/toxsci/kfaa014, 10.1177/026119290203000204, 10.1038/s41598-020-59542-x; for DT Class.: developmental toxicant classification, chemicals common with quickPredict; for Developmental Toxicant Classification: reference chemicals
[6] = system: SOX2 (ectoderm and pluripotency marker) in RUES2-GLR cells; experiment: DevTox GLR-Endo assay: increase in percent SOX2-positive cells (AEID 3095, Sox2_up); settings: for MAX_MEAN: tcpl plot AEID3095, maximum mean response; for MAX_MED: tcpl plot AEID3095, maximum median response;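 as to all read-outs here: cells exposed to test chemicals for 48 h in total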
[7] = read-out: DevTox % Max Inhibition
[8] = read-out: maximum observed effect level class (% max inhibition)
[9] = Table S2, SOX17-positive cells, cutoff 3*bmad
[10] = Table S2, percent SOX17-positive cells, 48 h exposure
[11] = tcpl plot AEID3093, maximum mean response, read-out: MAX_MEAN
[12] = tcpl plot AEID3093, maximum median response, read-out: MAX_MED
[13] = DevTox GLR-Endo prediction against developmental toxicant classification

O=P1(N(CCCl)CCCl)NCCCO1 (centres unmarked) [Cyclophosphamide]
DevTox ACC [1]: >200 µM
HIT−CALL [1]: 0
Hit Call [1]: Negative
hit call designation (in words) [1]: false negative
Emax [1, 7]: 7.49%
Emax ([1]; read-out: MAX_MEAN): 6.4%
Emax ([1]; read-out: MAX_MED): 7.49%
Emax [1, 8]: 0 to 20%
Emax [2]: 25.6%
Cell Count ACC ([2]; human): 100.193 µM
DevTox-GLR Endo CC ([2]; human): 100.19 µM
effect on cell count (in words) ([2]; human): significant cell loss that did not impact SOX17-positive populations
Emax ([3]; read-out: MAX_MEAN): 8.69%
Emax ([3]; read-out: MAX_MED): 8.98%
HIT−CALL [3]: 0
HIT−CALL [4]: 0
MAX_MEAN [4]: 0.871 Percent Activity
MAX_MED [4]: 0.897 Percent Activity
Development Toxicant Classification [5]: Positive
Classification [5]: Teratogen
DT Class. [5]: Pos
MAX_MEAN [6]: 0.952 Percent Activity
MAX_MED [6]: 0.491 Percent Activity

Nc1cccc2c1CN(C1CCC(=O)NC1=O)C2=O (centres unmarked) [Lenalidomide]
effect on SOX17-positive cells (in words) [1]: significant reductions in the SOX17-positive sub-population
IC50 [1]: 130 nM
Emax [1, 7]: 78.9%
Emax ([1]; read-out: MAX_MEAN): 78.8%
Emax ([1]; read-out: MAX_MED): 78.9%
AC50 [1]: 0.337 µM
Emax ([1]; read-out: tp (winning model)): 79.2%
Hit Call [1, 9]: Positive
DevTox ACC [1, 10]: 0.05026 µM
% Max Inhibition ([1]; 48 h exposure): 44%
HIT−CALL ([1]; tcpl plot AEID3094, COFF 20.3): 1
Emax [2]: 44.2%
Cell Count ACC ([2]; Table S2, 48 h exposure): 0.1174 µM
effect on cell counts (in words) [2]: cell counts remained constant
Emax [3, 11]: 10.3%
Emax [3, 12]: 9.38%
HIT−CALL [3]: 0
HIT−CALL [4]: 0
MAX_MEAN [4]: 0.843 Percent Activity
MAX_MED [4]: 0.842 Percent Activity
Development Toxicant Classification [5]: Positive
Classification [5]: Teratogen
Developmental Toxicant Classification [5]: Positive
MAX_MEAN [6]: 0.674 Percent Activity
MAX_MED [6]: 0.697 Percent Activity

OB(O)O [Boric acid]
hit call designation (in words) [1, 13]: false negative
Hit Call [1, 9]: Negative
DevTox % Max Inhibition ([1]; Table S2, percent SOX17-positive cells relative to DMSO): 16.7249%
DevTox ACC [1, 10]: >200 µM
maximum observed effect level class (% max inhibition) ([1]; stratification of training set chemicals): weak (weak (0–20% max inhibition))
HIT−CALL ([1]; tcpl plot AEID3094, COFF 20.3): 0
MAX_MEAN ([1]; tcpl plot AEID3094, maximum mean response): 15.7 Percent Activity
MAX_MED ([1]; tcpl plot AEID3094, maximum median response): 16.7 Percent Activity
Cell Count % Max Inhibition ([2]; Table S2, cell count relative to DMSO): 12.3286%
HIT−CALL [3]: 0
MAX_MEAN ([3]; tcpl plot AEID3093, maximum mean response): 7.53 Percent Activity
MAX_MED ([3]; tcpl plot AEID3093, maximum median response): 7.06 Percent Activity
HIT−CALL [4]: 0
MAX_MEAN [4]: 0.818 Percent Activity
MAX_MED [4]: 0.83 Percent Activity
Classification [5]: Teratogen
DT Class. [5]: Pos
MAX_MEAN [6]: 0.45 Percent Activity
MAX_MED [6]: 0.453 Percent Activity

CC1=C2C[C@H]3[C@@H](CC=C4C[C@@H](O)CC[C@@]43C)[C@@H]2CC[C@]12O[C@@H]1C[C@H](C)CN[C@H]1[C@H]2C [Cyclopamine]
hit call designation (in words) [1, 13]: borderline calls
Emax [1, 7]: 22.7%
Emax ([1]; read-out: MAX_MEAN): 34.8%
Emax ([1]; read-out: MAX_MED): 22.7%
Emax [1, 8]: 20 to 80%
Hit Call [1, 9]: Negative
DevTox ACC [1, 10]: >200 µM
HIT−CALL ([1]; tcpl plot AEID3094, COFF 20.3): 0
Emax [2]: 9.2%
Cell Count ACC ([2]; Table S2, 48 h exposure): >200 µM
Emax ([3]; read-out: MAX_MEAN): 3.34%
Emax ([3]; read-out: MAX_MED): 3.36%
HIT−CALL [3]: 0
HIT−CALL [4]: 1
MAX_MEAN [4]: 4.76 Percent Activity
MAX_MED [4]: 1.9 Percent Activity
Development Toxicant Classification [5]: Positive
Classification [5]: Teratogen
DT Class. [5]: Pos
HIT−CALL [6]: 0
MAX_MEAN [6]: 5.31 Percent Activity
MAX_MED [6]: 0.885 Percent Activity

Nc1cccc2c1C(=O)N(C1CCC(=O)NC1=O)C2=O (centres unmarked) [Pomalidomide]
effect on SOX17-positive cells (in words) [1]: significant reductions in the SOX17-positive sub-population
IC50 [1]: 50 nM
Emax [1, 7]: 95.9%
Emax ([1]; read-out: MAX_MEAN): 95.3%
Emax ([1]; read-out: MAX_MED): 95.9%
AC50 [1]: 0.0661 µM
Emax ([1]; read-out: tp (winning model)): 94%
Hit Call [1, 9]: Positive
DevTox ACC [1, 10]: 0.01911 µM
% Max Inhibition ([1]; 48 h exposure): 81%
HIT−CALL ([1]; tcpl plot AEID3094, COFF 20.3): 1
Emax [2]: 37.2%
Cell Count ACC ([2]; Table S2, 48 h exposure): 0.27 µM
effect on cell counts (in words) [2]: cell counts remained constant
Emax [3, 11]: 8.72%
Emax [3, 12]: 7.3%
HIT−CALL [3]: 0
HIT−CALL [4]: 0
MAX_MEAN [4]: 0.865 Percent Activity
MAX_MED [4]: 0.894 Percent Activity
Development Toxicant Classification [5]: Positive
Classification [5]: Teratogen
Developmental Toxicant Classification [5]: Positive
AC50 ([6]; Homo sapiens, read-out: ga (winning model)): 148000 nM
Emax ([6]; Homo sapiens, read-out: tp (winning model)): 88.9%
MAX_MEAN [6]: 62.1 Percent Activity
MAX_MED [6]: 67.4 Percent Activity

CC(=O)CC(c1ccccc1)c1c(O)c2ccccc2oc1=O (centres unmarked) [Warfarin]
Emax [1, 7]: 26.9%
Emax ([1]; read-out: MAX_MEAN): 26.8%
Emax ([1]; read-out: MAX_MED): 26.9%
AC50 [1]: 81.3 µM
Emax ([1]; read-out: tp (winning model)): 26.8%
Hit Call [1, 9]: Positive
DevTox ACC [1, 10]: 93.3273 µM
DevTox-GLR Endo ACC ([1]; activity concentration at cutoff, SOX17-positive cells, 48 h exposure): 93.33 µM
HIT−CALL ([1]; tcpl plot AEID3094, COFF 20.3): 1
Emax [2]: 19.1%
Cell Count ACC ([2]; Table S2, 48 h exposure): 197.749 µM
DevTox-GLR Endo CC ([2]; concentration at cell count cutoff, 48 h exposure): 197.75 µM
Emax [3, 11]: 11.3%
Emax [3, 12]: 11.6%
HIT−CALL [3]: 0
HIT−CALL [4]: 1
MAX_MEAN [4]: 0.949 Percent Activity
MAX_MED [4]: 0.975 Percent Activity
MAX_MEAN [6]: 0.566 Percent Activity
MAX_MED [6]: 0.495 Percent Activity

O=C(O)c1cc(/N=N/c2ccc(S(=O)(=O)Nc3ccccn3)cc2)ccc1O [Sulfasalazine]
Emax [1, 7]: 11.8%
Emax ([1]; read-out: MAX_MEAN): 9.93%
Emax ([1]; read-out: MAX_MED): 11.8%
Hit Call [1, 9]: Negative
DevTox ACC [1, 10]: >200 µM
HIT−CALL ([1]; tcpl plot AEID3094, COFF 20.3): 0
Emax [2]: 8.86%
Cell Count ACC ([2]; human, 48 h): >200 µM
Emax [3, 11]: 8.6%
Emax [3, 12]: 8.79%
HIT−CALL [3]: 0
HIT−CALL [4]: 0
MAX_MEAN [4]: 0.92 Percent Activity
MAX_MED [4]: 0.948 Percent Activity
MAX_MEAN [6]: 1.38 Percent Activity
MAX_MED [6]: 0.57 Percent Activity
